According to ChEMBL document CHEMBL1806438, “Thrombin inhibitors with lipid peroxidation and lipoxygenase inhibitory activities” (Bioorg Med Chem Lett, 2011):
pIC50, pKi: −log10 of the molar value.

Tests used:
[1] = test system: Glycine max; test: (§1) Inhibition of soybean lipoxygenase by UV absorbance based assay
[2] = test system: Radical scavenging activity; test: Antioxidant activity assessed as DPPH radical scavenging activity at 10 uM after 20 mins; assay type: functional
[3] = test system: Radical scavenging activity; test: Antioxidant activity assessed as DPPH radical scavenging activity at 10 uM after 60 mins; assay type: functional
[4] = test system: Radical scavenging activity; test: Antioxidant activity assessed as DPPH radical scavenging activity at 50 uM after 60 mins; assay type: functional
[5] = Antioxidant activity against AAPH-induced linoleic acid peroxidation by UV spectrophotometry analysis; assay type: functional
[6] = test system: Radical scavenging activity; test: Antioxidant activity assessed as DPPH radical scavenging activity at 50 uM after 20 mins; assay type: functional
[7] = target: Prothrombin (Homo sapiens, UniProt P00734); test: Inhibition of thrombin using S-2238 as substrate after 15 mins by spectrophotometric analysis
[8] = as §1; parameters: species or system Glycine max
[9] = Antioxidant activity against AAPH-induced linoleic acid peroxidation at 100 uM by UV spectrophotometry analysis; assay type: functional

| SMILES | inhibition [1] [%] | pIC50 [5] | pKi [7] | pIC50 [8] | Activity [2] [%] | Activity [3] [%] | Activity [4] [%] | Activity [6] [%] | inhibition [9] [%] |
| --- | --- | --- | --- | --- | --- | --- | --- | --- | --- |
| CCOC(=O)CN(Cc1ccc(F)cc1)c1ccc2c(c1)N(C)CC(C)(COc1ccc(C(=N)N)cc1)O2 (configuration not stated) | – | 4.11 | 6.16 | 4.14 | 11 | 24 | 14 | 11 | – |
| CCOC(=O)CN(Cc1ccc(F)c(F)c1)c1ccc2c(c1)OC(C)(COc1ccc(C(=N)N)cc1)CN2C (configuration not stated) | > 0 | 4.15 | 6.37 | – | 84 | 90 | 81 | 70 | – |
| Cc1c(C)c2c(c(C)c1O)CCC(C)(C(=O)O)O2 (configuration not stated) | – | – | – | – | – | – | – | – | 63 |
| CC(Cc1ccc(O)c(O)c1)C(C)Cc1ccc(O)c(O)c1 (configuration not stated) | – | – | – | – | 83 | 83 | 81 | 68 | – |
| CCOC(=O)CN(Cc1cccc(F)c1)c1ccc2c(c1)OC(C)(COc1ccc(C(=N)N)cc1)CN2C (configuration not stated) | > 0 | 4.09 | 6.46 | – | 71 | 85 | 63 | 48 | – |
| CCOC(=O)C(=O)N(Cc1cccc(F)c1)c1ccc2c(c1)N(C)CC(C)(COc1ccc(C(=N)N)cc1)O2 (configuration not stated) | > 0 | 4.05 | – | – | 12 | 24 | 14 | 11 | – |
| O=C(O)/C=C/c1ccc(O)c(O)c1 [CAFFEIC ACID] | – | – | – | 3.22 | – | – | – | – | – |
| CCOC(=O)CN(Cc1ccc(F)cc1)c1ccc2c(c1)OC(C)(COc1ccc(C(=N)N)cc1)CN2C (configuration not stated) | > 0 | 4.02 | 6.51 | – | 88 | 93 | 70 | 62 | – |

Now from value to compound, other results behind:

| inhibition [1] [%] | pIC50 [5] | pKi [7] | pIC50 [8] | SMILES | Activity [2] [%] | Activity [3] [%] | Activity [4] [%] | Activity [6] [%] | inhibition [9] [%] |
| --- | --- | --- | --- | --- | --- | --- | --- | --- | --- |
| > 0 | 4.21 | 6.43 | – | CCOC(=O)C(=O)N(Cc1ccc(F)c(F)c1)c1ccc2c(c1)N(C)CC(C)(COc1ccc(C(=N)N)cc1)O2 (configuration not stated) | 35 | 46 | 28 | 23 | – |
| > 0 | 4.16 | 6.32 | – | CCOC(=O)CN(Cc1cc(F)cc(F)c1)c1ccc2c(c1)OC(C)(COc1ccc(C(=N)N)cc1)CN2C (configuration not stated) | 75 | 86 | 68 | 54 | – |
| > 0 | 4.29 | – | – | CCOC(=O)C(=O)N(Cc1ccc(F)cc1)c1ccc2c(c1)N(C)CC(C)(COc1ccc(C(=N)N)cc1)O2 (configuration not stated) | 10 | 21 | 12 | 10 | – |
| 41.7 | 4.44 | 6.02 | – | CCOC(=O)CN(Cc1cc(F)cc(F)c1)c1ccc2c(c1)N(C)CC(C)(COc1ccc(C(=N)N)cc1)O2 (configuration not stated) | 8 | 18 | 10 | 8 | – |
| – | 4.16 | – | 4.00 | CCOC(=O)C(=O)N(Cc1cc(F)cc(F)c1)c1ccc2c(c1)N(C)CC(C)(COc1ccc(C(=N)N)cc1)O2 (configuration not stated) | 25 | 36 | 28 | 23 | – |
| > 0 | 4.17 | 6.18 | – | CCOC(=O)CN(Cc1ccc(F)c(F)c1)c1ccc2c(c1)N(C)CC(C)(COc1ccc(C(=N)N)cc1)O2 (configuration not stated) | 8 | 21 | 16 | 11 | – |
| 9.7 | 4.23 | 6.05 | – | CCOC(=O)CN(Cc1cccc(F)c1)c1ccc2c(c1)N(C)CC(C)(COc1ccc(C(=N)N)cc1)O2 (configuration not stated) | 10 | 23 | 14 | 11 | – |
